One data set relates to Alternaria solani. In words: In vivo preventive test on Alternaria solani (tomato). Particulars: 500 ppm of active ingredient, evaluated 7 days after inoculation. An outline of the steps: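 Preventive set-up: Alternaria solani spores, as aqueous suspension, applied to young plants one day after spraying. Spray contained active compound formulated with N,N-dimethylformamide and emulsifier, water-diluted to the desired application rate.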

A further data set relates to Pyrenophora teres. In words: In vivo preventive test on Pyrenophora teres (barley). The note with it: 500 ppm of active ingredient, evaluated 7-9 days after inoculation. The method in brief:
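Preventive test: young barley plants received a water-diluted spray of compound formulated with DMF solvent plus alkylaryl polyglycol ether emulsifier, at the stated rate. Inoculation with an aqueous spore suspension of Pyrenophora teres followed one day after spraying.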

The test system of the next data set is Botrytis cinerea. The data set is described as follows: In vivo preventive test on Botrytis cinerea (beans). The procedure:
Solvent: 24.5 parts by weight of acetone • 24.5 parts by weight of N,N-dimethylacetamide
Emulsifier: 1 part by weight of alkylaryl polyglycol ether
To produce a suitable preparation of active compound, 1 part by weight of active compound is mixed with the stated amounts of solvent and emulsifier, and the concentrate is diluted with water to the desired concentration.
To test for preventive activity, young plants are sprayed with the preparation of active compound. After the spray coating has dried on, 2 small pieces of agar covered with growth of Botrytis cinerea are placed on each leaf. The inoculated plants are placed in a darkened chamber at 20° C. and a relative atmospheric humidity of 100%.
2 days after the inoculation, the size of the lesions on the leaves is evaluated. 0% means an efficacy which corresponds to that of the untreated control, while an efficacy of 100% means that no disease is observed.

Data set [1] in a line: log P by HPLC on reversed-phase column (EEC Directive 79/831 Annex V.A8). The format is physicochemical. The procedure:
In table 1, the log P values were determined in accordance with EEC Directive 79/831 Annex V.A8 by HPLC (High Performance Liquid Chromatography) on a reversed-phase column (C18), using the method described below: Temperature: 40° C.; […]

A further data set concerns Puccinia triticina. The data set is described as follows: In vivo preventive test on Puccinia triticina (wheat).
In another data set the test system is Uromyces appendiculatus. In words: In vivo preventive test on Uromyces appendiculatus (beans). The note with it: 100 ppm of active ingredient, evaluated 10 days after inoculation. The procedure: (§1) Solvent: 24.5 parts by weight of acetone • 24.5 parts by weight of N,N-dimethylacetamide Emulsifier: 1 part by weight of alkylaryl polyglycol ether To produce a suitable preparation of active compound, 1 part by weight of active compound is mixed with the stated amounts of solvent and emulsifier, and the concentrate is diluted with water to the desired concentration. To test for preventive activity, young plants are sprayed with the preparation of active compound at the stated rate of application.

For data set [2], the system named is aflatoxines produced by Aspergillus parasiticus. In words: microbe, parasite or virus in culture. The data set is classed as cell-based.
The test system of another data set is Aspergillus parasiticus. The data set is described as follows: microbe, parasite or virus in culture. The format is cell-based.
For the next data set, the system named is Sphaerotheca fuliginea. In words: In vivo preventive test on Sphaerotheca fuliginea (cucumber). The note with it: 500 ppm of active ingredient, evaluated 7 days after inoculation. The method, then: Solvent: 49 parts by weight of N,N-dimethylformamide Emulsifier: 1 part by weight of Alkylarylpolyglycolether To produce a suitable preparation of active compound, 1 part by weight of active compound is mixed with the stated amounts of solvent and emulsifier, and the concentrate is diluted with water to the desired concentration. To test for preventive activity, young plants are sprayed with the preparation of active compound at the stated rate of application. One day after this treatment, the plants are inoculated with an aqueous spore suspension of Sphaerotheca fuliginea. Then the plants are placed in a greenhouse at approximately 23° C. and a relative atmospheric humidity of approximately 70%.

The next data set deals with Leptosphaeria nodorum. The data set is described as follows: In vivo preventive test on Leptosphaeria nodorum (wheat). The note with it: 500 ppm of active ingredient, evaluated 7-9 days after inoculation. The procedure: Solvent: 49 parts by weight of N,N-dimethylacetamide Emulsifier: 1 part by weight of alkylaryl polyglycol ether To produce a suitable preparation of active compound, 1 part by weight of active compound is mixed with the stated amounts of solvent and emulsifier, and the concentrate is diluted with water to the desired concentration. To test for preventive activity, young plants are sprayed with a preparation of active compound at the stated rate of application. One day after this treatment, the plants are inoculated with an aqueous spore suspension of Leptosphaeria nodorum.

In a further data set the test system is Venturia inaequalis. The data set is described as follows: In vivo preventive test on Venturia inaequalis (apple scab). Particulars: 100 ppm of active ingredient, evaluated 10 days after inoculation. The procedure: as §1
For the next data set, the system named is Septoria tritici. In words: In vivo preventive test on Septoria tritici (wheat). The note with it: 500 ppm of active ingredient, evaluated 21 days after inoculation. The method, then: Solvent: 49 parts by weight of N,N-dimethylacetamide Emulsifier: 1 part by weight of alkylaryl polyglycol ether To produce a suitable preparation of active compound, 1 part by weight of active compound or active compound combination is mixed with the stated amounts of solvent and emulsifier, and the concentrate is diluted with water to the desired concentration. To test for preventive activity, young plants are sprayed with the preparation of active compound or active compound combination at the stated rate of application. After the spray coating has been dried, the plants are sprayed with a spore suspension of Septoria tritici.

[3] abbreviates: Table L, 500 ppm of active ingredient, lesion size 2 days after inoculation.
Setting [4] is: Table L2, dose 500 ppm, comparison with des-fluoro analogues.
Setting [5] is: 500 ppm of active ingredient, evaluated 8 days after inoculation.
The mark [6] stands for this setting: Puccinia triticina, 192 h, Table K5, dose 500 ppm, comparison with des-fluoro analogues, read-out: Efficacy.
Where [7] appears, read: Table L5, dose 500 ppm, comparison with des-fluoro analogues.
Setting [8] is: Table K, 500 ppm of active ingredient, evaluated 8 days after inoculation.
[9] abbreviates: 500 ppm of active ingredient, lesion size 2 days after inoculation.

Where two headings read alike, the source gives them in different places.

In the case of `CC(N(C(=O)c1c(C(F)F)nn(C)c1Cl)C1CC1)C(C)(C)Cc1ccccc1` (centres unmarked) [Example 10], the Efficacy was 90% with Alternaria solani, 95% in the data set on Pyrenophora teres and 85% with Botrytis cinerea (setting [3]). This compound also returned a logP in [1] of 4.27.

In the data set with Botrytis cinerea (setting [4]), `Cn1cc(C(=O)N(CC2CCCCC2c2ccccc2)C2CC2)c(C(F)F)n1` (centres unmarked) [compound CMP1, N-cyclopropyl-3-(difluoromethyl)-1-methyl-N-[(2-phenylcyclohexyl)methyl]-1H-pyrazole-4-carboxamide, reference compound] displayed an Efficacy of 0%.

In the case of `Cn1cc(C(=O)N(C2CC2)C2CCCC(c3ccccc3)C2)c(C(F)F)n1` (centres unmarked) [compound CMP3, N-cyclopropyl-3-(difluoromethyl)-1-methyl-N-(3-phenylcyclohexyl)-1H-pyrazole-4-carboxamide, reference compound], the Efficacy entry in the data set on Puccinia triticina (setting [5]) is listed as “no protection”; in the data set with Botrytis cinerea (setting [7]), 0%. The pest or weed control at 500 ppm with Puccinia triticina (setting [6]) was determined as 0%.

In the case of `CC(C)CC(C)C1CCCC1NC(=O)c1c(C(F)F)nn(C)c1Cl` (single isomer, unassigned) [Example 313], the values for the Efficacy with Alternaria solani, in the data set on Pyrenophora teres and in the data set on Uromyces appendiculatus were 80%, 100% and 88%, respectively. In addition, the “% Inhibition of Aflatoxin at 50 μM” value in data set [2] (50 µM) is on record as 99%. Also, in the data set on Aspergillus parasiticus (50 µM), the “% Inhibition of fungal growth at 50 μM” value came out at 82%. This compound gave a logP in [1] of 4.46 isomer B.

In the case of `Cn1nc(C(F)F)c(C(=O)NC2(C3CCCCC3)CC2)c1F` [Example 381], the Efficacy with Sphaerotheca fuliginea is recorded as 95%; with Alternaria solani, 100%; with Pyrenophora teres it was 100%; with Botrytis cinerea (setting [3]), 88%. The compound further registered a logP in data set [1] of 3.11.

For `CCC1(CNC(=O)c2c(C(F)F)nn(C)c2F)CCCCC1` [Example 366], the figures for the Efficacy with Alternaria solani and in the data set on Botrytis cinerea (setting [3]) were 90% and 84%, respectively. The logP in [1] is 3.55.

Consider `CC(CC1CCCCC1)N(C(=O)c1c(C(F)F)nn(C)c1F)C1CC1` (centres unmarked) [Example 370], for which the Efficacy in the data set with Sphaerotheca fuliginea came to 100%; in the data set with Alternaria solani, 100%; with Pyrenophora teres it was 100%; in the data set with Leptosphaeria nodorum it was 90%; with Puccinia triticina (setting [8]) it was 90%; with Botrytis cinerea (setting [3]) it was 100%. The compound further showed a logP in [1] of 4.36.

For the compound `Cn1nc(C(F)F)c(C(=O)N(C[Si](C)(C)Cc2cccc(Cl)c2)C2CC2)c1F` [Example 291], the Efficacy with Sphaerotheca fuliginea was 73%; in the data set with Alternaria solani, 100%; in the data set with Pyrenophora teres, 100%; with Leptosphaeria nodorum, 100%; with Botrytis cinerea (setting [3]), 100%. In addition, the “% Inhibition of Aflatoxin at 50 μM” value in data set [2] is given as 100%. The “% Inhibition of fungal growth at 50 μM” value in the data set with Aspergillus parasiticus was determined as 100%. The compound further came in with a logP in data set [1] of 4.44.

As for `Cn1nc(C(F)F)c(C(=O)N(C2CC2)C2CCCCC2C2=CCCCC2)c1F` (centres unmarked) [Example 376], the Efficacy with Uromyces appendiculatus stood at 94%. In [1], this compound came in with a logP of 4.88.

On to `Cn1nc(C(F)F)c(C(=S)N(C[Si](C)(C)Cc2ccccc2)C2CC2)c1F` [Example 289], for which the Efficacy with Sphaerotheca fuliginea was 93%; in the data set on Alternaria solani, 95%; in the data set on Pyrenophora teres it was 100%; in the data set with Leptosphaeria nodorum, 95%; with Botrytis cinerea (setting [3]), 100%. The logP in data set [1] is on record as 4.67.

Turning to `CC(CC(C)(C)C)C1CCCCC1NC(=O)c1c(C(F)F)nn(C)c1F` (single isomer, unassigned) [Example 361], the Efficacy in the data set on Sphaerotheca fuliginea stood at 91%; in the data set with Alternaria solani it was 95%; with Pyrenophora teres it was 95%; in the data set on Venturia inaequalis it was 88%; in the data set on Septoria tritici it was 100%; with Puccinia triticina (setting [8]) it was 90%. Also, the “% Inhibition of Aflatoxin at 50 μM” value in data set [2] came out at 100%. Besides, the “% Inhibition of fungal growth at 50 μM” value in the data set on Aspergillus parasiticus (50 µM) came out at 84%. The compound further had a logP in [1] of 4.89 isomer B.

Regarding `Cc1nn(C)c(F)c1C(=O)N(CC1CCCCC1c1ccccc1)C1CC1` (centres unmarked) [compound CMP9, N-cyclopropyl-5-fluoro-1,3-dimethyl-N-[(2-phenylcyclohexyl)methyl]-1H-pyrazole-4-carboxamide, reference compound], the Efficacy with Botrytis cinerea (setting [4]) is listed as 13%.

Turning to `Cc1nn(C)c(F)c1C(=O)N(C1CC1)C1CCCC(c2ccccc2)C1` (centres unmarked) [compound CMP2, N-cyclopropyl-5-fluoro-1,3-dimethyl-N-(3-phenylcyclohexyl)-1H-pyrazole-4-carboxamide, reference compound], the Efficacy entry in the data set with Puccinia triticina (setting [5]) is “no protection”; with Botrytis cinerea (setting [7]) it was 5%. Further, the pest or weed control at 500 ppm with Puccinia triticina (setting [6]) was 0%.

In the case of `CCC(C)C(C)N(C(=O)c1c(C(F)F)nn(C)c1F)C1CC1` (mixture of isomers) [Example 302], the Efficacy is 98% in the data set on Sphaerotheca fuliginea, 95% in the data set with Alternaria solani, 100% in the data set with Pyrenophora teres and 93% in the data set on Botrytis cinerea (setting [3]). Also, in data set [2], the “% Inhibition of Aflatoxin at 50 μM” value turned out to be 100%. Moreover, the “% Inhibition of fungal growth at 50 μM” value in the data set with Aspergillus parasiticus is given as 100%.

Consider `Cn1cc(C(=O)N(C2CC2)C2CCCCC2Cc2ccccc2)c(C(F)F)n1` (centres unmarked) [16 from WO-2010/094666, N-(2-benzylcyclohexyl)-N-cyclopropyl-3-(difluoromethyl)-1-methyl-1H-pyrazole-4-carboxamide, reference compound], for which the Efficacy entry is reported as “no protection” with Puccinia triticina (100 ppm of active ingredient, evaluated 8 days after inoculation, listed as example 16 disclosed in patent application WO-2010/094666); 29% in the data set with Botrytis cinerea (setting [9]); “less than 30%” with Botrytis cinerea (500 ppm of active ingredient, lesion size 2 days after inoculation, listed as example 16 disclosed in patent application WO-2010/094666). For the same compound, in the data set with Puccinia triticina (Puccinia triticina, 192 h, 100 ppm of active ingredient, evaluated 8 days after inoculation, read-out: Efficacy), the pest or weed control at 100 ppm was 0%. The pest or weed control at 500 ppm in the data set with Puccinia triticina (Puccinia triticina, 192 h, 500 ppm of active ingredient, evaluated 8 days after inoculation, read-out: Efficacy) was less than 60%.

Regarding `CC(C)CCC1CCCC1NC(=O)c1c(C(F)F)nn(C)c1F` (centres unmarked) [Example 310], the Efficacy with Sphaerotheca fuliginea, in the data set with Alternaria solani, in the data set on Pyrenophora teres, in the data set with Venturia inaequalis and with Uromyces appendiculatus was 100% each time. In addition, the “% Inhibition of Aflatoxin at 50 μM” value in data set [2] is on record as 100%. The “% Inhibition of fungal growth at 50 μM” value in the data set with Aspergillus parasiticus is 96%. In addition, the logP in [1] is 3.98.

Consider `Cn1nc(C(F)F)c(C(=O)N(C2CC2)C2CCCCC2C2CCCCC2)c1F` (centres unmarked) [Example 372], for which the Efficacy in the data set with Sphaerotheca fuliginea came out at 100%; in the data set with Alternaria solani it was 95%; in the data set on Pyrenophora teres, 100%; in the data set with Leptosphaeria nodorum, 94%; in the data set with Puccinia triticina (setting [8]) it was 100%; in the data set with Botrytis cinerea (setting [3]) it was 91%. In [1], this compound displayed a logP of 5.28.

Take `Cc1nn(C)c(F)c1C(=O)N(C1CC1)C1CCCCC1Oc1ccccc1` (centres unmarked) [compound CMP10, N-cyclopropyl-5-fluoro-1,3-dimethyl-N-(2-phenoxycyclohexyl)-1H-pyrazole-4-carboxamide, reference compound]: the Efficacy entry is “less than 30%” in the data set with Botrytis cinerea (setting [9]) and 29% in the data set with Botrytis cinerea (Table L4, dose 500 ppm, comparison with des-fluoro analogue).

The values are drawn from patent publication US8999956B2, “N-[(het)arylalkyl)] pyrazole(thio)carboxamides and their heterosubstituted analogues” (Bayer Intellectual Property GmbH, priority 2010, dated 2015).
